Source: patent US20230414472A1, “COSMETIC COMPOSITION INCLUDING GARLIC EXTRACT, BLACK TEA EXTRACT, AND GUAVA EXTRACT” (COSMAX INC., priority 2022, published 2023)

Tests used:
[1] = molecular target: T1, SNARE complex (SNAP-25, syntaxin 1a, VAMP-2) (Homo sapiens, UniProt P60880+P63027+Q16623); test: Inhibitory effect on membrane fusion (SNARE liposome fusion, fluorescence intensity); assay type: biochemical; conditions: 100 μM myricetin; FIG. 1
T1 construct: GST (inferred from purification on glutathione agarose beads); made in house; host or cells: E. coli
T1 sequence (P60880 whole entry, the tested form may be a part): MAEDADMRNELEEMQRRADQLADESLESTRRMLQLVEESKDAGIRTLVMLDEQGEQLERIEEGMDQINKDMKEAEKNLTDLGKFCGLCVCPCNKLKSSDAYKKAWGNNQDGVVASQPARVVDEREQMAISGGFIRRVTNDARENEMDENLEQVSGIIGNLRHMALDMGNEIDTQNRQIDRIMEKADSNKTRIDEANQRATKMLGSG
T1 sequence (Q16623 whole entry, the tested form may be a part): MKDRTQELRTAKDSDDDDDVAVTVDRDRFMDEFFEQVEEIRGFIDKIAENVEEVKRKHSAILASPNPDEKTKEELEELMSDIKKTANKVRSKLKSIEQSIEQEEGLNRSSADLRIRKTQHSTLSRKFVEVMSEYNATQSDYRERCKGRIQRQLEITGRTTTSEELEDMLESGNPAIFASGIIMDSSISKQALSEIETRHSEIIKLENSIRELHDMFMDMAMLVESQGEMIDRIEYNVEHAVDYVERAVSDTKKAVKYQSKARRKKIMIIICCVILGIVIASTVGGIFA
T1 sequence (P63027 whole entry, the tested form may be a part): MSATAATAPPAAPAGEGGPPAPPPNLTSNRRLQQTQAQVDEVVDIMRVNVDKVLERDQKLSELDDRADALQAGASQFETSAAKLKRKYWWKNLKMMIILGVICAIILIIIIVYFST
Experimental: The inhibitory effect of the composition according to an embodiment on the membrane fusion was confirmed. Also, since myricetin was predicted as an active ingredient, the inhibitory effect of 100 μM of myricetin (Sigma-Aldrich) on the membrane fusion was also confirmed.
First, a soluble nethylmaleimide-sensitive factor attachment protein (SNAP) receptor protein was overexpressed in transformed E. coli, and then the expressed protein was selectively purified and obtained by using glutathione agarose beads. Then, […] (POPC, 62 mol %), 1,2-dioleoyl-sn-glycero-3-phosphatidylserine (DOPS, 35 mol %), 1,2-dioleoyl-sn-glycero-3-phosphoserine-N-(7-nitro-2-1,3-benzoxadiazol-4-yl) (NBD-PS, 1.5 mol %), and a fluorescent material, rhodamine (rhodamin-PE, 1.5 mol %) were mixed to prepare a 10 mM fluorescent substance-labeled liposome (v-vesicle). Meanwhile, DOPS and POPC were mixed to a molar concentration of 35:65 to prepare a 50 mM liposome (t-vesicle) that is not labeled with a fluorescent substance. Then, purified synaptosomal-associated protein, SNAP-25, and syntaxin 1a were mixed at a molar concentration of 1:1 and allowed for a reaction for 1 hour at room temperature, followed by mixing with the liposome that is not labeled with a fluorescent substance at a molar ratio of 100:1. […]
Then, the fluorescence intensity thereof was measured.

[2] = system: acetylcholine release in human skin tissue; test: Acetylcholine release in human skin explant (choline/acetylcholine assay kit); assay type: cell-based; conditions: 10 μL sample every day for 3 days, FIG. 4
[3] = system: VAMP2; test: VAMP2 level in human skin explant (fluorescence staining); assay type: cell-based; conditions: 10 μL sample at set concentrations, cultured 72 hours, FIG. 3

membrane fusion rate [1]: most significantly reduced
SMILES: O=c1c(O)c(-c2cc(O)c(O)c(O)c2)oc2cc(O)cc(O)c12 [myricetin]
amount of acetylcholine released in the skin tissue [2]: significantly reduced | VAMP2 level in the skin tissue [3]: significantly reduced
